Experimental data published in ChEMBL document CHEMBL6153025, “Multidrug-resistant bacteria quorum-sensing inhibitors: A particular focus on Pseudomonasaeruginosa” (Eur J Med Chem, 2025).
pIC50: −log10 of the molar value. Values after ≈ are worked out from the molar mass of the structure shown.

Assays:
Pseudomonas aeruginosa [1] = experiment: Antibacterial activity against Pseudomonas aeruginosa PAO1 by broth microdilution method; type: functional
Pseudomonas aeruginosa [2] = experiment: Antibiofilm activity against Pseudomonas aeruginosa PAO1 assessed as inhibition of biofilm formation at 16 ug/ml incubated for 24 hrs by crystal violet staining based assay relative to control; type: functional; parameters: scale not given: the % may be the effect or the level left; settings: dose 16 µg/ml
Pseudomonas aeruginosa [3] = experiment: Antivirulence activity against Pseudomonas aeruginosa PAO1 assessed as inhibition of pyocyanin production at 16 ug/ml relative to control; type: functional; parameters: scale not given: the % may be the effect or the level left; settings: dose 16 µg/ml
Pseudomonas aeruginosa [4] = experiment: Antivirulence activity against Pseudomonas aeruginosa PAO1 assessed as inhibition of rhamnolipid production at 16 ug/ml relative to control; type: functional; parameters: scale not given: the % may be the effect or the level left; settings: dose 16 µg/ml
Pseudomonas aeruginosa [5] = experiment: Downregulation of lasB mRNA level in Pseudomonas aeruginosa PAO1; type: functional
Pseudomonas aeruginosa [6] = experiment: Downregulation of lasR mRNA expression in Pseudomonas aeruginosa PAO1; type: functional
Pseudomonas aeruginosa [7] = experiment: Anti-virulence effect in Pseudomonas aeruginosa PAO1 assessed as inhibition of rhamnolipid production at 10 uM relative to control; type: functional; parameters: scale not given: the % may be the effect or the level left
Pseudomonas aeruginosa [8] = experiment: Antibacterial activity against Pseudomonas aeruginosa PAO1 assessed as bacterial growth inhibition measured after 18 hrs by CLSI protocol based two-fold serial microdilution method; type: functional
Pseudomonas aeruginosa [9] = experiment: Antivirulence activity against Pseudomonas aeruginosa PAO1 assessed as inhibition of pyocyanin production at 25 ug/ml incubated for 16 hrs under agitation by photometric analysis relative to control; type: functional; parameters: scale not given: the % may be the effect or the level left; settings: dose 25 µg/ml
Pseudomonas aeruginosa [10] = experiment: Antivirulence activity against Pseudomonas aeruginosa PAO1 assessed as reduction in pyocyanin level at 10 uM relative to control; type: functional; parameters: scale not given: the % may be the effect or the level left
Pseudomonas aeruginosa [11] = experiment: Antibiofilm activity against logarithmic growth phase Pseudomonas aeruginosa PAO1 assessed as inhibition of biofilm formation incubated for 20 hrs by crystal violet staining based analysis; type: functional, organism-based; settings: PAO1, 20 h
Pseudomonas aeruginosa [12] = experiment: Downregulation of rhlA mRNA level in Pseudomonas aeruginosa PAO1 at 32 ug/ml relative to control; type: functional; settings: dose 32 µg/ml
[13] = Inhibition of quorum sensing system in Pseudomonas aeruginosa PAO1- rhlA-gfp assessed as reduction in fluorescence intensity measured for 12 hrs by GFP reporter strain assay
[14] = Inhibition of quorum sensing system in Pseudomonas aeruginosa PAO1-pqsA-gfp assessed as reduction in fluorescence intensity incubated for 12 hrs by GFP reporter strain assay

SMILES: COc1ccccc1N1CCN(c2ccnc(SCC(=O)Nc3c(C)cc(C)cc3C)n2)CC1
- MIC (Pseudomonas aeruginosa [1]): 500 µM (≈ 239 µg/mL)
- Activity (Pseudomonas aeruginosa [2]): 52.4%
- Activity (Pseudomonas aeruginosa [3]): 76.56%
- Activity (Pseudomonas aeruginosa [4]): 62.46%
- Activity (Pseudomonas aeruginosa [5]): 85%
- Activity (Pseudomonas aeruginosa [6]): 85%

SMILES: Oc1ncnc2[nH]ncc12 [ALLOPURINOL]
- Activity (Pseudomonas aeruginosa [7]): 74%
- Activity (Pseudomonas aeruginosa [3]): 74%
- MIC (Pseudomonas aeruginosa [8]): 2 µg/mL (≈ 14.7 µM)
- Activity (Pseudomonas aeruginosa [9]): 70%

SMILES: C=C1CC(=O)N(c2ccc(Br)cc2)C1=O
- Activity (Pseudomonas aeruginosa [10]): 55%
- pIC50 (Pseudomonas aeruginosa [11]): 5.00
- Activity (Pseudomonas aeruginosa [12]): 78%
- pIC50 [13]: 5.18
- pIC50 [14]: 5.60
